Where a name gives a salt, the structure may show the parent alone.
Target: human recombinant 5-HT2A receptor (Homo sapiens (Human), UniProt P28223)
Assay: Determination of Ki value at 5-HT2A receptor ([3H]-Ketanserine radioligand binding)
Description: Determination of Ki Value at 5-HT2A Receptor
Compound was tested according to the following procedures.
Receptor source: Recombinant mammalian cells
Radioligand: [^3H]-Ketanserine (47.3 Ci/mmol)
Final ligand concentration—[1.75 nM]
Non-Specific Ligand: 0.1 mM 1-Naphthylpiperazine (1-NP)
Reference compound: 1-Naphthylpiperazine (1-NP)
Positive control: 1-Naphthylpiperazine (1-NP)
Incubation conditions: Reactions were carried out in 67 mM Tris-HCl (pH 7.4) for 1 hour at 37° C. The reaction was terminated by rapid vacuum filtration onto the glass fiber filters. Radioactivity trapped onto the filters was determined and compared to the control values in order to ascertain any interactions of the test compound(s) with the cloned serotonin 5-HT2A binding site. Reference: Methods in Molecular Biology, 2002, 190, 31-49 Results:
. The Ki values tabulated below are average of three independent experiments.

COc1ccc2c(c1)c(CN1CCN(C)CC1)cn2S(=O)(=O)c1ccc(F)cc1 [Compound 2, 1-[(4-Fluorophenyl)sulfonyl]-5-methoxy-3-[(4-methyl-1-piperazinyl)methyl]-1H-indole dihydrochloride]
Ki: > 10 µM
